One data set deals with NFκB. Put plainly: NFκB-driven luciferase reporter assay in LPS-challenged RAW 264.7 macrophages. The class given is cell-based. The note with it: Mus musculus, RAW264.7; RAW 264.7, LPS 200 ng/mL; linked bioactive; read-out: IC50 in an NFkB assay. How it is done: RAW 264.7 cells transfected with an NFκB-driven luciferase reporter were plated in 96 well plates. Cells were treated with Vehicle (0.1% ethanol) or test compounds for 2 hours. As a positive control for inhibition of NFκB signaling, 6 wells were treated with […]. Cells were then challenged with 200 ng/mL LPS for 3 hours in the presence of test compounds. A subset of wells treated with vehicle remained unstimulated with LPS to determine the floor signal of the assay. NFκB driven luciferase activity was developed by addition of BriteLite luciferase kit (PERKIN ELMER®) and measured using a Victor V plate reader. NFκB activity (luciferase activity) for each treatment was normalized to Vehicle wells treated with LPS (% NFκB Response).

For data set [1], the target named is T1, human recombinant MAG-lipase (Homo sapiens, UniProt Q99685).
T1 construct: purchased Cayman 705192
T1 sequence (Q99685 1-303): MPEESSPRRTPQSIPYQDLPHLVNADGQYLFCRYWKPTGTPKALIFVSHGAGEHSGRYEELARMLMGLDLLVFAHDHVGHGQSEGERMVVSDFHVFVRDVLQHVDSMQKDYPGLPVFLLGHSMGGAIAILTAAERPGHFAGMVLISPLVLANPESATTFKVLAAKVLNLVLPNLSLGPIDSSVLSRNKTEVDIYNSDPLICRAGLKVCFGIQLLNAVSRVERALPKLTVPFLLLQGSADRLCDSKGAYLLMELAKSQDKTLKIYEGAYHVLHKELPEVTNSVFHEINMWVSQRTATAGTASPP
Briefly: Hydrolysis with human recombinant monoacylglycerol lipase, with and without MAGL inhibitor. The class given is biochemical. The following applies: FIG. 8. The method, then:
Hydrolysis experiment involving Monoacylglycerol lipase (MAGL) with and without a MAGL inhibitor. A commercially available Monoacylglycerol (MAGL) kit from Cayman (Cat #705192) was used for the hydrolysis experiment. The hydrolysis was carried out in Eppendorf tubes by adding together 300 μL of a 10 mM Tris-HCl buffer (pH 7.2, 1 mM EDTA), 20 μL of DMSO, and 20 μL of the human recombinant MAG-lipase. […] The Eppendorf tubes were gently inverted to mix the components and then placed in a 37° C. incubator. A 25 μl, sample was withdrawn at each of the following time points: 0, 5, 10, 15, and 30 min. […] In a separate experiment, the hydrolysis was then repeated in the presence of a MAGL inhibitor (compound JZL184, supplied with the commercially available MAGL kit). Eppendorf tubes were charged with 300 μL of a 10 mM Tris-HCl buffer (pH 7.2, 1 mM EDTA), 20 μL of a […] solution of JZL184 in DMSO in order to make a 5 μM final concentration, and 20 μL of the human recombinant MAG-lipase. […] The Eppendorf tubes were gently inverted to mix the components and then placed in a 37° C. incubator.

The nature of data set [2]: Rat liver lysate hydrolysis assay (FAAH and thiol reductase promoted cleavage). The class given is in vitro ADME. The note with it: FIG. 7B; presence of inhibitor. How it is done:
The rat liver lysate hydrolysis experiment was performed in Eppendorf tubes, by adding the necessary amount of water for the assay first. A 10× buffer solution with final concentrations of HEPES and EDTA of 50 mM and 1 mM respectively was prepared from 500 mM HEPES and 10 mM EDTA in water. Rat liver lysate was removed from −80° C. storage, thawed and centrifuged at 4000 g for 5 min. A volume of the supernatant was transferred to the Eppendorf tube yielding a final concentration in the assay of 3 mg/mL rat liver lysate. The tube was gently inverted to mix the components. The reactions are then place in a 37° C. incubator for 20 min allowing the reaction mixture to reach 37° C. before the reaction was initiated.
To initiate the hydrolysis reaction, the samples were removed from the incubator and the compounds of the invention were added, as a DMSO solution, prepared in a manner to allow for <1% final DMSO concentration and 5 μM final compound concentration. […]
This rat liver lysate hydrolysis assay was used to assess the hydrolysis of bis-fatty acid linked bioactives into individual components. As an illustrative example, the bis-fatty acid cystamine linked bioactive VI-7 was assessed in this rat liver lysate assay. […] The amount of cysteamine that was formed could be quantitated by LC-MS/MS by carrying out an initial derivatization with Ellman's reagent. […] 50 μl of the tissue lysate reaction mixture was transferred to a 1.5 mL eppendorf tube and derivatization of cysteamine was performed with 50 μl 10 mM Ellman's reagent (5,5′ dithio-bis(2-nitrobenzoic acid). Samples were incubated at room temperature for 10 minutes, vortex for 1 minute followed by protein precipitation by addition of 300 μl of acetonitrile containing IS and 0.2% butylated hydroxyanisole (BHA). Supernatant was transferred to a clean LC vial and 10 μl of the sample was injected on LC-MS/MS for the measurement of cysteamine. The concentration of cysteamine was measured by LC-MS/MS. […]

The target in a further data set is T2, FAAH-1 (Homo sapiens, UniProt O00519).
T2 construct: expressed in transfected cells; host or cells: COS-7
T2 sequence (O00519 1-579): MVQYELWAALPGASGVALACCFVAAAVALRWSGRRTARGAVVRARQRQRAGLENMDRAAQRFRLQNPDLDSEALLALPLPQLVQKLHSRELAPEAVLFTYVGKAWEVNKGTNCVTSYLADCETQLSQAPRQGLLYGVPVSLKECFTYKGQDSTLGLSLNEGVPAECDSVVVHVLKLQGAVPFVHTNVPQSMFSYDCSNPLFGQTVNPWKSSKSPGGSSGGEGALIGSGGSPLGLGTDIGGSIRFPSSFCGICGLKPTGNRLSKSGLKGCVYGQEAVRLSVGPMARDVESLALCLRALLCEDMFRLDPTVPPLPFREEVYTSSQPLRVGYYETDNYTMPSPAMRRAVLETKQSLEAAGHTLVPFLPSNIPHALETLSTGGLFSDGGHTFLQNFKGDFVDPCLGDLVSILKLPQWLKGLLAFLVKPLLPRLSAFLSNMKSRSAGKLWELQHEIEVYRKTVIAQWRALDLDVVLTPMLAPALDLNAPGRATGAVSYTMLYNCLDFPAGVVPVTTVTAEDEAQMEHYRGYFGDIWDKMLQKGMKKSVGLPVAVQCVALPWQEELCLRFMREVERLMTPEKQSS
Briefly: Hydrolysis in homogenate of COS-7 cells overexpressed with FAAH-1. The note with it: 5 μM inhibitor. The data set is classed as biochemical. The method, then: (§1) Hydrolysis experiments using COS-7 cells overexpressed with either FAAH-1 or FAAH-2. […] The next day, cells were transfected, in duplicate, with 10 μg Vector control, flag-FAAH-1 or flag-FAAH-2 plasmids using Lipofectamine 2000 (Invitrogen) according to the manufacturer's protocol. 24 hours post transfection, cells were washed 1× in cold PBS, aspirated dry, and then scraped off the plate in the presence of 0.6 mL reaction buffer (50 mM HEPES, pH 9.0; 1 mM EDTA). Cells were then homogenated using a VWR VDI 12 Adaptable Homogenizer, on ice for 1 minute, and the sample was then clarified by centrifugation at 6,000 g for 5 minutes. The supernatant of this homogenated fraction was then used for FAAH hydrolysis assays. […] Gel densitometry was performed and the % FAAH extracted in each successive lysis conditions was determined according to standard procedures.
(§2) The following hydrolysis experiments were performed using COS-7 cells containing overexpressed FAAH-1 or FAAH-2. […] Briefly, the hydrolysis experiments were carried out in Eppendorf tubes using procedures similar to the one described above. […] At time=0, 1, and 3 h, the protein was precipitated with acetonitrile.

In a further data set the target is T3, FAAH-2 (Homo sapiens, UniProt Q6GMR7).
T3 construct: expressed in transfected cells; host or cells: COS-7
T3 sequence (Q6GMR7 1-532): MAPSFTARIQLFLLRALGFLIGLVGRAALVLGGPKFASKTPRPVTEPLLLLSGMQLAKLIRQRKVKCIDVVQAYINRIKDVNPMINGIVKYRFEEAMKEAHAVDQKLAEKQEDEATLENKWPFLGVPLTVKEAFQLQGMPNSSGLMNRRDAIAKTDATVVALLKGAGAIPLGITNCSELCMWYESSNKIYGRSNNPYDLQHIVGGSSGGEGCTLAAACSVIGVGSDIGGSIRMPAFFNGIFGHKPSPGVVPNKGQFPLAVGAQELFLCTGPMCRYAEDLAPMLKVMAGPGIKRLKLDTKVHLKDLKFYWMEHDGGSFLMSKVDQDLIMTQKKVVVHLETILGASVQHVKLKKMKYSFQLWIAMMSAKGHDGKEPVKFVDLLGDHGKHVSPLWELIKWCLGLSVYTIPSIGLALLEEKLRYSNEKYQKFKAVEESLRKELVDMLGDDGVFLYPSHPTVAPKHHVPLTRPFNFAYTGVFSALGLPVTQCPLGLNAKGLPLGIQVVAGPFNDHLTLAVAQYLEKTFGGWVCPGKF
Briefly: Hydrolysis in homogenate of COS-7 cells overexpressed with FAAH-2. The data set is classed as biochemical. The following applies: FIG. 9B; 5 μM inhibitor. The method, then: as §1, §2

For a further data set, the system named is LTB4. Put plainly: LTB4 assay (HTRF) in differentiated HL-60 cells stimulated with A23187. The data set is classed as cell-based. The following applies: Homo sapiens, linked bioactive. The method, then:
The LTB4 assay was conducted using a commercial kit (CISBIO, Bedford, Mass.) in HL-60 cells. HL-60 cells were maintained in IMEM supplemented with 20% serum in 37° C. in 5% CO2. Media was changed 2 times a week and cells kept at a density of 2×10^5 to 1×10^6 cells/ml.
Before the experiment cell culture media was changed to 10% serum and HL-60 cells were differentiated for 3 days in 1.3% DMSO. On day 3 cells were concentrated 2 times in the DMSO containing media and 1 ml cell suspension/well plated in 24-well plates. BSA controls or CAT compounds prepared in 1% BSA from an ethanol or DMSO stock solution were added to the wells and the cell were incubated for 21 hours. Next day, cells were transferred to Eppendorf tubes centrifuged at 300×g and rinsed once in DPBS. Cells were re-suspended in 300 μl DPBS containing 2% FBS (assay buffer), and 80 μl/well was plated in 96-well plates (black sides, clear bottom). Some cells were pre-incubated with 10 μM NDGA, a LOX inhibitor. To initiated LTB4 secretion, cells were stimulated with the calcium ionophore A23187 (5 μM) for 15 min. […] LTB4 content in the supernatant was assessed by a homogeneous time resolved fluorescence (HTRF) LTB4 assay from CISBIO, in a 384-well plate format. […] Cell viability was determined in the 96-well plate by CellTiter-Glo (Promega, Madison, Wis.).
On the technique in general: TR-FRET usually uses a lanthanide donor and a delayed reading to cut background.

For the molecule `CC/C=C\C/C=C\C/C=C\C/C=C\C/C=C\C/C=C\CCC(=O)Nc1ccc(O)c(C(=O)O)c1` [II-1, 5-(4Z,7Z,10Z,13Z,16Z,19Z)-docosa-4,7,10,13,16,19-hexaenamido-2-hydroxybenzoic acid], in the data set on NFκB, the IC50 (commonly the concentration needed to halve the response being measured) is 40000 to 50000 nM. Further, in data set [1] (5 μM final concentration, 37° C., 0-30 min, no inhibitor), the “hydrolysis using human recombinant MAG-lipase (remaining compound)” value is “time-dependent hydrolysis”.
Turning to `O=C(Oc1ccc([N+](=O)[O-])cc1)N1CCC(C(O)(c2ccc3c(c2)OCO3)c2ccc3c(c2)OCO3)CC1` [JZL184, reference compound], the “effect of MAGL inhibitor on rate of hydrolysis of compound II-1” value in data set [1] (5 μM inhibitor) is on record as “reduced significantly”.
For `O=C(Nc1cccnc1)N1CCC(Cc2cccc(Oc3ccc(C(F)(F)F)cn3)c2)CC1` [PF-3845], the “effect of FAAH inhibitor on formation of cysteamine from compound VI-7 in rat liver lysate” value in data set [2] is “essentially no increase in cysteamine”. Besides, the “effect of inhibitor on rate of hydrolysis of compound I-1, FAAH-1” value at FAAH-1 (FIG. 9A) was “significantly reduced”. Moreover, the “effect of inhibitor on rate of formation of DHA from compound I-1, FAAH-1” value at FAAH-1 (FIG. 9C) is on record as “significantly inhibited”. For the same molecule, at FAAH-2, the “effect of inhibitor on hydrolysis of compound I-1, FAAH-2” value is on record as “not as effective as URB597”.
Regarding `CC/C=C\C/C=C\C/C=C\C/C=C\C/C=C\C/C=C\CCC(=O)NCCNC(=O)C(C)c1ccc(CC(C)C)cc1` (stereo not drawn) [VIIa-1, (4Z,7Z,10Z,13Z,16Z,19Z)-N-(2-(2-(4-isobutylphenyl)propanamido)ethyl)docosa-4,7,10,13,16,19-hexaenamide], in the data set on LTB4, the IC50 amounted to 2200 nM.
On the same count and under the same terms, the same measure for `CC/C=C\C/C=C\C/C=C\C/C=C\C/C=C\C/C=C\CCC(=O)N[C@@H](CCCCNC(=O)C(C)c1ccc(CC(C)C)cc1)C(=O)O` (stereo partly drawn) [VIIa-2, (2S)-2-((4Z,7Z,10Z,13Z,16Z,19Z)-docosa-4,7,10,13,16,19-hexaenamido)-6-(2-(4-isobutylphenyl)propanamido)hexanoic acid]: 1600 nM.

These data come from patent US20140315786A1, “USE OF INTRACELLULAR ENZYMES FOR THE RELEASE OF COVALENTLY LINKED BIOACTIVES” (Catabasis Pharmaceuticals, Inc., priority 2011, published 2014).
